Data published in ChEMBL document CHEMBL3046681, “Synthesis and insecticidal evaluation of propesticides of benzoylphenylureas” (2005).

Tests used:
Type in all cases: functional
Mythimna separata [1] = experiment: Insecticidal activity against fourth instar larvae of Mythimna separata (Oriental armyworm) in compound treated corn leaves assessed as mortality at 500 mg/kg by foliar application
Mythimna separata [2] = experiment: Insecticidal activity against fourth instar larvae of Mythimna separata (Oriental armyworm) in compound treated corn leaves assessed as mortality at 50 mg/kg by foliar application
Mythimna separata [3] = experiment: Insecticidal activity against fourth instar larvae of Mythimna separata (Oriental armyworm) in compound treated corn leaves assessed as mortality at 200 mg/kg by foliar application
Mythimna separata [4] = experiment: Insecticidal activity against fourth instar larvae of Mythimna separata (Oriental armyworm) in compound treated corn leaves assessed as mortality at 0.2 mg/kg by foliar application
Mythimna separata [5] = experiment: Insecticidal activity against fourth instar larvae of Mythimna separata (Oriental armyworm) in compound treated corn leaves assessed as mortality at 0.5 mg/kg by foliar application
Mythimna separata [6] = experiment: Insecticidal activity against fourth instar larvae of Mythimna separata (Oriental armyworm) in compound treated corn leaves assessed as mortality at 1 mg/kg by foliar application
Mythimna separata [7] = experiment: Insecticidal activity against fourth instar larvae of Mythimna separata (Oriental armyworm) in compound treated corn leaves assessed as mortality at 5 mg/kg by foliar application
Mythimna separata [8] = experiment: Insecticidal activity against fourth instar larvae of Mythimna separata (Oriental armyworm) in compound treated corn leaves assessed as mortality at 10 mg/kg by foliar application
Mythimna separata [9] = experiment: Insecticidal activity against fourth instar larvae of Mythimna separata (Oriental armyworm) in compound treated corn leaves assessed as mortality at 25 mg/kg by foliar application
Mythimna separata [10] = experiment: Insecticidal activity against fourth instar larvae of Mythimna separata (Oriental armyworm) in compound treated corn leaves assessed as mortality at 100 mg/kg by foliar application
Mythimna separata [11] = experiment: Insecticidal activity against fourth instar larvae of Mythimna separata (Oriental armyworm) in compound treated corn leaves assessed as mortality at 0.1 mg/kg by foliar application

| Compound | mortality at 500 mg/kg (Mythimna separata [1]) [%] | mortality at 50 mg/kg (Mythimna separata [2]) [%] | mortality at 200 mg/kg (Mythimna separata [3]) [%] | mortality at 0.2 mg/kg (Mythimna separata [4]) [%] | mortality at 0.5 mg/kg (Mythimna separata [5]) [%] | mortality at 1 mg/kg (Mythimna separata [6]) [%] | mortality at 5 mg/kg (Mythimna separata [7]) [%] | mortality at 10 mg/kg (Mythimna separata [8]) [%] | mortality at 25 mg/kg (Mythimna separata [9]) [%] | mortality at 100 mg/kg (Mythimna separata [10]) [%] | mortality at 0.1 mg/kg (Mythimna separata [11]) [%] |
| --- | --- | --- | --- | --- | --- | --- | --- | --- | --- | --- | --- |
| CCOC(=O)N(C(=O)NC(=O)c1c(F)cccc1F)c1ccc(Cl)cc1 | 100 | 100 | 100 | 0 | 0 | 0 | 0 | 0 | 100 | 100 |  |
| CC(C)(C)OC(=O)N(C(=O)NC(=O)c1c(F)cccc1F)c1ccc(C(F)(F)F)cc1 | 100 | 100 | 100 | 0 | 0 | 0 | 75 | 100 | 100 | 100 |  |
| O=C(NC(=O)N(C(=O)OCc1ccccc1)c1ccc(C(F)(F)F)cc1)c1c(F)cccc1F | 100 | 0 | 30 | 0 | 0 | 0 | 0 | 0 | 0 | 0 |  |
| CN(SN(C(=O)NC(=O)c1c(F)cccc1F)c1ccc(C(F)(F)F)cc1)C(=O)OC(C)(C)C | 100 | 100 | 100 | 35 | 100 | 100 | 100 | 100 | 100 | 100 | 0 |
| O=C(NC(=O)N(C(=O)OCc1ccccc1)c1ccc(Cl)cc1)c1c(F)cccc1F | 100 | 0 | 100 | 0 | 0 | 0 | 0 | 0 | 0 | 70 |  |
| O=C(NC(=O)c1c(F)cccc1F)Nc1ccc(Cl)cc1 [DIFLUBENZURON] | 100 | 100 | 100 | 45 | 100 | 100 | 100 | 100 | 100 | 100 | 0 |
| CCOC(=O)N(C(=O)NC(=O)c1c(F)cccc1F)c1ccc(C(F)(F)F)cc1 | 100 | 100 | 100 | 0 | 0 | 0 | 0 | 0 | 5 | 100 |  |
| CN(SN(C(=O)NC(=O)c1c(F)cccc1F)c1ccc(Cl)cc1)C(=O)OCc1ccccc1 | 100 | 100 | 100 | 0 | 55 | 85 | 100 | 100 | 100 | 100 | 0 |
| CCOC(=O)N(C)SN(C(=O)NC(=O)c1c(F)cccc1F)c1ccc(Cl)cc1 | 100 | 100 | 100 | 5 |  | 20 | 100 | 100 | 100 | 100 | 0 |
| CCOC(=O)N(C)SN(C(=O)NC(=O)c1c(F)cccc1F)c1ccc(C(F)(F)F)cc1 | 100 | 100 | 100 | 85 | 95 | 100 | 100 | 100 | 100 | 100 | 0 |
| CC(C)(C)OC(=O)N(C(=O)NC(=O)c1c(F)cccc1F)c1ccc(Cl)cc1 | 100 | 100 | 100 | 0 | 0 | 5 | 95 | 100 | 100 | 100 |  |
